What follows are compounds tested against T1, human FSH receptor (Homo sapiens, UniProt P23945) (assay: Agonistic activity of compounds at the human FSH receptor expressed in CHO cells, CRE/luciferase reporter (hFSHRago (CHO luc))). Conditions: CHO cells stably transfected with the human FSH receptor and CRE/firefly luciferase reporter; 4 hours of incubation; half-maximal stimulation relative to the compound's own maximal effect; read-out: hFSHRago (CHO luc) EC50.
T1 construct: expressed in transfected cells; host or cells: Chinese Hamster Ovary (CHO) cells, stably transfected, cotransfected with CRE/promotor-firefly luciferase reporter
T1 sequence (P23945 18-695): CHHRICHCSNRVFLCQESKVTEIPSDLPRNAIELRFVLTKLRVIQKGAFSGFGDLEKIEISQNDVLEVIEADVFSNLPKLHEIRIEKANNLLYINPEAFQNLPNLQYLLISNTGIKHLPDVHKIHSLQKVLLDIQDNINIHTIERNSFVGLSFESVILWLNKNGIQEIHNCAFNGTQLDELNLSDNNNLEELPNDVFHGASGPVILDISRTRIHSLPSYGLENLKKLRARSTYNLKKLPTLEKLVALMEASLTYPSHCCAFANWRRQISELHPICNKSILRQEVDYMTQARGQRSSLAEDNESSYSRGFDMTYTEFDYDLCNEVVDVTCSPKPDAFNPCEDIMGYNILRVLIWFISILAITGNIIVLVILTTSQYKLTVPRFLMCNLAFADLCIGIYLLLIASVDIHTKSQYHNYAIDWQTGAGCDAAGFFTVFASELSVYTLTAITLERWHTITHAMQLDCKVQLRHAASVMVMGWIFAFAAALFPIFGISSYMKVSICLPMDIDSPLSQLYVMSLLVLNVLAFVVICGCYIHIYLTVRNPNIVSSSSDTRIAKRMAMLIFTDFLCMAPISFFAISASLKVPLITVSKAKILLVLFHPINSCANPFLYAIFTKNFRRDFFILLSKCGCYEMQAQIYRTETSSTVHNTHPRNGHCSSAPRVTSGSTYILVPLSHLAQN
Type: cell-based
Method in brief: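 CHO cells stably expressing human FSH receptor with CRE/firefly luciferase reporter, incubated 4 h at 37 °C with compounds (0.0316 nM–10.0 µM, duplicate, 1% DMSO final) in insulin/apo-transferrin-supplemented medium. Luminescence read after lysis; EC50 relative to compound's own maximum, efficacy as % of recombinant human FSH maximum.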

Compared with `CCOc1ccc2c(c1)CCn1c(C(=O)N(C)C(C)(C)C)nc(-c3cccs3)c1-2` [Example 40c, 8-Ethoxy-1-thiophen-2-yl-5,6-dihydro-imidazo[5,1-a]isoquinoline-3-carboxylic acid tert-butyl-methyl-amide], `COc1cc2c(cc1SC(C)C)-c1c(-c3cccs3)nc(C(=O)N(C)C(C)(C)C)n1CC2` [Example 52c, 9-Isopropylsulfanyl-8-methoxy-1-thiophen-2-yl-5,6-dihydro-imidazo[5,1-a]isoquinoline-3-carboxylic acid tert-butyl-methyl-amide] is 26-fold lower in EC50: 417 nM for the first, 16 nM for the second.

`COc1cc2c(cc1CCC(C)(C)O)-c1c(-c3cccs3)nc(C(=O)N(C)C(C)(C)C)n1CC2` [Example 41c, 9-(3-Hydroxy-3-methyl-butyl)-8-methoxy-1-thiophen-2-yl-5,6-dihydro-imidazo[5,1-a]isoquinoline-3-carboxylic acid tert-butyl-methyl-amide] and `COc1cc2c(cc1NC(=O)C(C)C)-c1c(-c3cccs3)nc(C(=O)N(C)C(C)(C)C)n1CC2` [Example 46, 9-Isobutyrylamino-8-methoxy-1-thiophen-2-yl-5,6-dihydro-imidazo[5,1-a]isoquinoline-3-carboxylic acid tert-butyl-methyl-amide] are within 1.5-fold of each other in EC50: 191 nM for the first, 148 nM for the second.

Going from `COc1cc2c(cc1Oc1ccccc1)-c1c(-c3cccs3)nc(C(=O)N(C)C(C)(C)C)n1CC2` [Example 42b, 8-Methoxy-9-phenoxy-1-thiophen-2-yl-5,6-dihydro-imidazo[5,1-a]isoquinoline-3-carboxylic acid tert-butyl-methyl-amide] to `COc1cccc(Oc2cc3c(cc2OC)CCn2c(C(=O)N(C)C(C)(C)C)nc(-c4cccs4)c2-3)c1` [Example 43b, 8-Methoxy-9-(3-methoxy-phenoxy)-1-thiophen-2-yl-5,6-dihydro-imidazo[5,1-a]isoquinoline-3-carboxylic acid tert-butyl-methyl-amide], the EC50 rises from 128 nM to 447 nM (3.5-fold).

Compared with `COc1cc2c(cc1-c1cccnc1)-c1c(C(C)(C)C)nc(C(=O)N(C)C(C)(C)C)n1CC2` [Example 44e, 1-tert-Butyl-8-methoxy-9-pyridin-3-yl-5,6-dihydro-imidazo[5,1-a]isoquinoline-3-carboxylic acid tert-butyl-methyl-amide], `COc1cc2c(cc1OC(C)C)-c1c(-c3cncs3)nc(C(=O)N(C)C(C)(C)C)n1CC2` [Example 47e, 9-Isopropoxy-8-methoxy-1-thiazol-5-yl-5,6-dihydro-imidazo[5,1-a]isoquinoline-3-carboxylic acid tert-butyl-methyl-amide] is 5.5-fold lower in EC50: 33 nM for the first, 6 nM for the second.

First: COc1cc2c(cc1N1CCOCC1)-c1c(-c3cccs3)nc(C(=O)N(C)C(C)(C)C)n1CC2 [Example 45, 8-Methoxy-9-morpholin-4-yl-1-thiophen-2-yl-5,6-dihydro-imidazo[5,1-a]isoquinoline-3-carboxylic acid tert-butyl-methyl-amide]
Second: COc1cc2c(c(F)c1CC(C)C)-c1c(-c3cccs3)nc(C(=O)N(C)C(C)(C)C)n1CC2 [Example 48j, 10-Fluoro-9-isobutyl-8-methoxy-1-thiophen-2-yl-5,6-dihydro-imidazo[5,1-a]isoquinoline-3-carboxylic acid tert-butyl-methyl-amide]
The EC50 of the first is 16-fold higher: 113 nM for the first, 7 nM for the second.

First: COc1cc2c(cc1OC)-c1c(-c3ccccc3)nc(C(=O)N3CCCCCC3)n1CC2 [Example 49d, Azepan-1-yl-(8,9-dimethoxy-1-phenyl-5,6-dihydro-imidazo[5,1-a]isoquinolin-3-yl)-methanone]
Second: COc1cc2c(cc1OC)-c1c(-c3ccc(F)cc3)nc(C(=O)N3CCCN(C(C)=O)CC3)n1CC2 [Example 50e, 1-{4-[1-(4-Fluoro-phenyl)-8,9-dimethoxy-5,6-dihydro-imidazo[5,1-a]isoquinoline-3-carbonyl]-[1,4]diazepan-1-yl}-ethanone]
The EC50 of the first is 2-fold higher: 630 nM for the first, 315 nM for the second.

From patent publication EP2435433B1, “(DIHYDRO)IMIDAZOISO[5,1-A]QUINOLINES AS FSH RECEPTOR AGONISTS FOR THE TREATMENT OF FERTILITY DISORDERS” (Merck Sharp & Dohme B.V., priority 2009, dated 2010)
